One data set has as its target T1, AEP (Homo sapiens, UniProt Q99538).
T1 construct: tested with purified active AEP, IC50 values for the top 8 candidates were found; purchased Sino Biological
T1 sequence (Q99538 18-323 limits assumed): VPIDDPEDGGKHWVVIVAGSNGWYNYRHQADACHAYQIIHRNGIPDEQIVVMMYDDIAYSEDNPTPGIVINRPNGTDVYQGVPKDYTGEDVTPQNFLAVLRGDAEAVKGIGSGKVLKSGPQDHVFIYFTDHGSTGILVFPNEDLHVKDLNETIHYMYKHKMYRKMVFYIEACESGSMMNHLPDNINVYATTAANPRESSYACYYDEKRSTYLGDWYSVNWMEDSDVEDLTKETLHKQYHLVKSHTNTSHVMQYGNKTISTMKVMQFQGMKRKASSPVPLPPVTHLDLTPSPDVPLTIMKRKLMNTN
Nature of the data set: Enzyme inhibition assays (steady-state kinetics, Z-AAN-AMC). The note with it: for mode of inhibition: Michaelis-Menten plots; for inhibition constant KI: competitive inhibition fit. In kind it is biochemical. The method, then:
KI values for each inhibitor were determined by global fits to the competitive inhibition equation. C. Time course inactivation assays were used to generate progress curves, depicting product formation as a function of time. […] E. Time course inactivation assays were used to generate progress curves, depicting product formation as a function of time. Pseudo first-order rate constants were obtained at each concentration of compound BB1. F. Re-plot of the pseudo first-order rate constants, kobs, vs. the concentration of compound BB1.
To continue to assess the mechanism utilized by the compounds to inhibit AEP, the inhibition kinetics were determined for compound, 11, as well as compound BB1, in an attempt to confirm that the thiol moiety is competitively inhibiting the enzyme. […] The resulting Michaelis-Menten plots for each compound seem be indicative of competitive inhibition. […] Since BB1 contains a thiol group, it can form a disulfide bond with the active-site cysteine of AEP. […] Additionally, plotting the pseudo-first-order rate constants of inhibition, kobs, which were determined from the progress curves, yielded a hyperbolic curve, consistent with a two-step mechanism of inactivation (FIG. 6D). […] However, the kobs versus inhibitor concentration plot yielded a straight line, maybe due to the rapid disulfide formation reaction (FIG. 6F).
To determine the inhibition constants and the mechanism by which compounds BB1, 11 and 38 inhibit AEP, the steady-state kinetic parameters for the hydrolysis of the peptide substrate, Z-AAN-AMC, was determined in the absence or presence of increasing concentrations of inhibitor. In these assays, specified concentrations of the inhibitor were pre-incubated with substrate for 10 min at 37° C., then 50 nM AEP was added to initiate the reaction, which was quenched after 10 min. The RFU values of the reaction product were converted to micromolar values with an AMC standard curve and the final reaction rates were plotted against substrate concentration and globally fit to equations representative of competitive inhibition (eq 1), noncompetitive inhibition (eq 2), mixed inhibition (eq 3) and uncompetitive inhibition (eq 4) using a nonlinear least fit squares approach by GraFit version 5.0.11. […]
ν=Vmax[S]/([S]+Km(1+[1]/Kis)) (eq 1), ν=Vmax[S]/([S](1+[1]/Kl)+Km(1+[1]/Ki)) (eq 2), ν=Vmax[S]/([S](1+[1]/Kii)+Km([…])) (eq 3), ν=Vmax[S]/([S](1+[1]/Kii)+Km) (eq 4).
In the equations, Kii is the intercept Ki, and Kis is the slope Ki. The mode of the inhibition induced by the compounds on AEP was determined by the best fit of the data to equations 1 -4. Visual inspection of the fits, and a comparison of the standard errors, was used to confirm these assignments.

Another data set addresses CYP2C19 (Homo sapiens, UniProt P33261). Nature of the data set: CYP inhibition screening, CYP2C19. In kind it is in vitro ADME.
A further data set has as its target CYP2D6 (Homo sapiens, UniProt P10635). Nature of the data set: CYP inhibition screening, CYP2D6. In kind it is in vitro ADME.
The test system of another data set is Cathepsin. Put plainly: OGD in primary neurons, Cathepsin activity. The note with it: 0.1 μM or 1.0 μM compound. Type of data set: cell-based. The method, then: A. AEP activity, measured in primary neuronal cultures with 5 μM Cbz-Ala-Ala-Asn-AMC (x-axis denotes neurons were treated with 0.1 μM or 1.0 μM specified compound). B. Caspase activity, measured in primary neuronal cultures with 5 μM Ac-Asp-Glu-Val-Asp-AMC. C. Cathepsin activity, measured in primary neuronal cultures with 5 μM D-Val-Leu-Lys-AMC. D. Inhibition of APP cleavage. Lysates of primary cortical neurons pre-incubated with compounds for 30 min, underwent OGD for 4 hrs, were reperfused for 18 hrs (normoxia neurons remained at normoxic conditions). E. APP can be cleaved in a dose-dependent manner. Lysates of primary cortical neurons pre-incubated with compounds for 30 min, underwent OGD for 4 hrs, were reperfused for 18 hrs (normoxia neurons remained at normoxic conditions).
Depriving cells of oxygen and glucose is a cellular model that is employed to trigger acidosis in cultured cells. The efficacy of the compounds in a cellular model of oxygen-glucose deprivation (OGD) was determined in an effort to mimic the effects of stroke in primary cultured neurons. As a result of depriving neurons of oxygen and glucose-containing medium, AEP activity was doubled (FIG. 7A, ‘DMSO-Norm’ compared to ‘DMSO-OGD’), while Caspase-3 and Cathepsin activities remained relatively unchanged. […]

Molecules are shown by their SMILES.

Chain of CYP2C19 (P33261 whole entry): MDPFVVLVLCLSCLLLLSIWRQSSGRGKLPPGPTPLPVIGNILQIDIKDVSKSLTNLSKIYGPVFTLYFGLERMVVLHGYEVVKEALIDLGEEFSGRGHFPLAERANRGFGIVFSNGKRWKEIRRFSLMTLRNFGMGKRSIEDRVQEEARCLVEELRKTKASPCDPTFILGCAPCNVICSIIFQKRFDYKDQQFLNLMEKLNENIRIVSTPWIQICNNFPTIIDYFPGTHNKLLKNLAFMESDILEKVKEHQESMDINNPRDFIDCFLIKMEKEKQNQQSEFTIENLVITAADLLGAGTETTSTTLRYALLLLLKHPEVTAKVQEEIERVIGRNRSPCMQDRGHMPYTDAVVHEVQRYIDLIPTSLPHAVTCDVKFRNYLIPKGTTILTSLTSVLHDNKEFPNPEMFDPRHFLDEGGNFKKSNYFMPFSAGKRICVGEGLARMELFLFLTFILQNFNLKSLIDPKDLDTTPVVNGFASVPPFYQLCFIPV
Chain of CYP2D6 (P10635 whole entry, the tested form may be a part): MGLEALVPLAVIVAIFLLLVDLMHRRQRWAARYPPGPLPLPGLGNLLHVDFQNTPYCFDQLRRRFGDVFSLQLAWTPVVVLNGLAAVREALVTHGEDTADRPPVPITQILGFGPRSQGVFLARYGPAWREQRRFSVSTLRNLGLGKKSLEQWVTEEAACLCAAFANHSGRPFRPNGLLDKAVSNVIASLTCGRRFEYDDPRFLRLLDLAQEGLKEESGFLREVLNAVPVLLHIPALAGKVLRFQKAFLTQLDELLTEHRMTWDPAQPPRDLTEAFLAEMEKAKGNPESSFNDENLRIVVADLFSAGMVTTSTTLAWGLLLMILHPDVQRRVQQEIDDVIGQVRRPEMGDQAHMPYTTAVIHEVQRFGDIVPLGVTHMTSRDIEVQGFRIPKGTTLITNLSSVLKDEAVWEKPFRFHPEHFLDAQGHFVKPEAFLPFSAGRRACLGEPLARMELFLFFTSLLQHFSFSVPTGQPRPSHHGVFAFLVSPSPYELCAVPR

`Sc1nnc(Nc2ccccc2)s1` [Compound BB1]: at AEP, the mode of inhibition result is “competitive inhibitors” and the “inhibition constant KI” value is reported as “nanomolar-range”.
Turning to `Cn1c(=O)[nH]c(=O)c2c1nc(S)n2CC(O)COc1ccc(Cl)cc1` (stereo not shown) [Compound 38], the “CYP inhibition, CYP2C19” value on CYP2C19 (test concentration 3 μM) was −12.0%; at CYP2C19 (test concentration 10 μM) it was 9.5%. The “CYP inhibition, CYP2D6” value on CYP2D6 (test concentration 3 μM) was −5.4%; at CYP2D6 (test concentration 10 μM), 0.9%.
Consider `Nc1ccc(N2CCOCC2)c2nonc12` [Compound 11], for which the “CYP inhibition, CYP2C19” value at CYP2C19 (test concentration 3 μM) is reported as 4.4%; at CYP2C19 (test concentration 10 μM), 6.8%. Further, on AEP, the mode of inhibition entry is on record as “competitive inhibitors”. The “inhibition constant KI” value at AEP is “nanomolar-range”. For the same compound, the “CYP inhibition, CYP2D6” value at CYP2D6 (test concentration 3 μM) is on record as 7.8%; on CYP2D6 (test concentration 10 μM) it was 21.9%. In the data set with Cathepsin, the “Cathepsin activity in OGD-treated neurons” value is given as “not observed”.

The values are drawn from US20170029388A1, “Treatment of Neurodegenerative Diseases with Asparagine Endopeptidase (AEP) Inhibitors and Compositions Related Thereto” (INTERCONTINENTAL GREAT BRANDS LLC, priority 2014, published 2017).
